# Activity calls are given as the source filed them.
# Columns and labels:
# [1] = target: T1, Methionyl-tRNA synthetase, putative (Trypanosoma brucei brucei, UniProt Q38C91); assay type: functional, Trypanosoma brucei brucei strain 927/4 GUTat10.1
# T1 sequence (Q38C91 whole entry): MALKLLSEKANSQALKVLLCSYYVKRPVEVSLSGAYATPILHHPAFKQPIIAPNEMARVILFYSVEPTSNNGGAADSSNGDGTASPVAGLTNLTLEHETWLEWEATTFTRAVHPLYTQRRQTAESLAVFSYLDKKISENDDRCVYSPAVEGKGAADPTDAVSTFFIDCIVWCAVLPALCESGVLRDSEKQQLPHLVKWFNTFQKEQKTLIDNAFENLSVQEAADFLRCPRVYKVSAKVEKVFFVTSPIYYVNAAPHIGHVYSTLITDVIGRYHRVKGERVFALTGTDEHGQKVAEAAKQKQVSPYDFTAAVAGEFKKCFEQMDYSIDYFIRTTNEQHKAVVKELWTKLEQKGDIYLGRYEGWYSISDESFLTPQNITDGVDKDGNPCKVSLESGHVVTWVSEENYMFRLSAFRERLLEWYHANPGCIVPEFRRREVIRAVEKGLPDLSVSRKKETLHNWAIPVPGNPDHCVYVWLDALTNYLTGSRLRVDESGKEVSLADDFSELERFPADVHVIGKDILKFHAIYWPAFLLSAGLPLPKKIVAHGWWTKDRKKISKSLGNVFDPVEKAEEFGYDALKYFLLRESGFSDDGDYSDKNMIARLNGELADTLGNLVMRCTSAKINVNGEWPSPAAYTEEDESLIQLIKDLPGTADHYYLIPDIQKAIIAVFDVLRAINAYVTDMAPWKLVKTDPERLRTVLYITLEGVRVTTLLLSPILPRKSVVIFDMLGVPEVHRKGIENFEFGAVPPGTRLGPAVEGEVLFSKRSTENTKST
# [2] = Counterscreen for inhibitors of Trypanosoma brucei methionyl tRNA synthetase (MetRS): Luminescence-based cell-based high throughput dose response assay to identify compounds that are cytotoxic to Jurkat human T lymphocyte cells.; assay type: functional
# [3] = target: T1, Methionyl-tRNA synthetase, putative; assay type: functional, Trypanosoma brucei brucei strain 927/4 GUTat10.1; remark: listed apart in the source
# [4] = target: Endoplasmic reticulum aminopeptidase 1 (Homo sapiens, UniProt Q9NZ08); test: inhibition of human ERAP1 enzyme activity – biochemical, cherry-pick, set 2, plate reader, dose response (AID 743314)
# [5] = target: 72 kDa type IV collagenase (Homo sapiens, UniProt P08253); test: Dose Response validation of uHTS RPN11 inhibitor hits using a MMP-2 Fluorescence assay.; assay type: functional
# [6] = target: 26S proteasome non-ATPase regulatory subunit 14 (Homo sapiens, UniProt O00487); test: inhibition of proteasome subunit RPN11 – biochemical, fluorescence polarization, uHTS hits, confirmation (AID 602368); assay type: functional
# Prothrombin = Prothrombin (Bos taurus, UniProt P00735); test: thrombin protease inhibitors – biochemical, fluorescence polarization, uHTS hits, dose response (AID 602369); assay type: functional
# [7] = target: T2, Probable nicotinate-nucleotide adenylyltransferase (Staphylococcus aureus (strain N315), UniProt P65502); assay type: functional, Staphylococcus aureus subsp. aureus N315;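 for IC50 Mean: confirmatory dose-response retesting of NadD inhibitor hits first found in an ultra-high-throughput screen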
# [8] = target: T2, Probable nicotinate-nucleotide adenylyltransferase; assay type: functional, Staphylococcus aureus subsp. aureus N315; details: read-out: IC50_Mean
# HEK293 = test: EBV LMP1 TES2 canonical NF-kB signalling blockers – cell-based, HEK293, luciferase, cherry-pick, dose response (AID 588343); assay type: functional; details: Homo sapiens
# cells = assay type: functional, cell-based
# [9] = target: Nuclear receptor subfamily 0 group B member 1 (Homo sapiens, UniProt P51843); assay type: functional, cell-based;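 note: HEK293T cells transfected with SF-1 and DAX-1 plus StAR promoter luciferase reporter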
# [10] = viability loss in HEK293 cells – cell-based, plate reader, cherry-picked samples, cytotoxicity control, dose response (AID 743446); assay type: functional
# [11] = A549 cell cytotoxicity, dose response, cytotoxicity control, plate reader, cherry-pick, antagonist series (AID 743412); assay type: functional, cell-based
# [12] = blockers of bursicon-stimulated LGR2 cAMP reporter – cell-based, HEK293, CRE-luciferase reporter, cherry pick, set 2, dose response (AID 743343); assay type: functional;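 note: transfected cells were stimulated with diluted bursicon conditioned medium after compound addition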
# [13] = blockade of melanocortin 4 receptor signaling – cell-based, plate reader, cherry pick, counter-screen for LGR2 antagonist project, dose response (AID 743444); assay type: functional;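 note: transfected HEK 293 cells stimulated with alpha-MSH peptide; potency of inhibitors of the alpha-MSH evoked signal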
# Albumin = Albumin (Bos taurus, UniProt P02769); test: Counterscreen for inhibitors of T-cell receptor (TCR)-CD3 interaction: Fluorescence-based biochemical high throughput dose response assay to identify inhibitors of T-cell receptor (TCR)-CD3 interaction using a TAMRA-labeled BSA probe.; assay type: functional
# [14] = bead-based luminescence quenchers, dual-tagged ARNT – biochemical, AlphaScreen, cherry-pick, artefact control for ARNT-TACC3 interaction inhibitor project, dose response (AID 651705); assay type: functional;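 note: AlphaScreen bead proximity signal that flags compounds interfering with the detection technology; potency reflects signal decrease which marks the compound as an assay artifact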
# [15] = Counterscreen for activators of the function of SWI/SNF related, matrix associated, actin dependent regulator of chromatin, subfamily a, member 2 (SMARCA2, BRM): Luminescence-based cell-based high throughput dose response assay to identify non-selective compounds using the VP16 reporter assay.; assay type: functional
# [16] = target: SWI/SNF-related matrix-associated actin-dependent regulator of chromatin subfamily A member 2 (Homo sapiens, UniProt P51531); test: Luminescence-based cell-based high throughput dose response assay to identify activators of the function of SWI/SNF related, matrix associated, actin dependent regulator of chromatin, subfamily a, member 2 (SMARCA2, BRM).; assay type: functional
# [17] = target: T3, Carboxy-terminal domain RNA polymerase II polypeptide A small phosphatase 1 (Homo sapiens, UniProt Q9GZU7); test: CTDSP1 inhibitors, concentration-response, biochemical, absorbance readout, ultra-high-throughput screen actives (AID 540297); assay type: functional
# T3 sequence (Q9GZU7 whole entry): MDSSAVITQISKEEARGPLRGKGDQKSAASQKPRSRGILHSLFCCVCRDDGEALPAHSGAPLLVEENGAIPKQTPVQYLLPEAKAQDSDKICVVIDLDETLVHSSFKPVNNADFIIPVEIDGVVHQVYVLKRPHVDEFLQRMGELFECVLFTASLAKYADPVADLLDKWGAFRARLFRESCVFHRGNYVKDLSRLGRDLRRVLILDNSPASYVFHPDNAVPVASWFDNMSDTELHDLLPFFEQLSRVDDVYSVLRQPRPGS
# [18] = target: Melanin-concentrating hormone receptor 1 (Homo sapiens, UniProt Q99705); test: Late-stage fluorescence-based counterscreen for antagonists of the G-protein coupled receptor 7 (GPR7): cell-based dose response assay to identify antagonists of the melanin-concentrating hormone receptor 1 (MCHR1) Set 6.; assay type: functional
# [19] = toxicity toward HepG2 liver cells – cell-based, plate reader, cherry-pick, antagonist series, cytotoxicity control, dose response (AID 743416); assay type: functional
# [20] = general mammalian cell viability loss – activator set, cherry-pick, cytotoxicity control for miR-122 modulator project, dose response (AID 720690); assay type: functional, cell-based;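 note: HEK293T human cells scored for general mammalian cytotoxicity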
# [21] = activation of miR-122 Renilla sensor silencing – cell-based, Huh7 psiCHECK-miR122, Renilla luciferase, cherry-picked, dose response (AID 651956); assay type: functional;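 note: huh7 hepatoma cells stably carrying a psiCHECK-2 miR-122 sensor plasmid; renilla luciferase signal reporting endogenous miR-122 activity after 48 h compound exposure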
# [22] = target: Disintegrin and metalloproteinase domain-containing protein 17 (Homo sapiens, UniProt P78536); test: exosite inhibitors of ADAM17, dose response, biochemical (AID 743260)
# [23] = inhibition of ADAM10 peptide cleavage – biochemical, FRET peptide substrate, recombinant human ADAM10, selectivity assay for ADAM17 exosite inhibitor project, dose response (AID 743259);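 note: ADAM10 enzyme cleaving a FRET peptide substrate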
# HeLa = test: viability loss in HeLa cells – cell-based, ATP luminescence, cherry-pick samples, cytotoxicity control, dose response (AID 687004); assay type: functional; details: Homo sapiens
# [24] = T. cruzi growth inhibition in host cells, dose response, cell-based, plate reader, dry powder, set 2 (AID 652275); assay type: functional
# Large T antigen = Large T antigen (Simian virus 40, UniProt P03070); assay type: functional, Betapolyomavirus macacae;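 note: Confirmatory-stage PubChem screen for compounds that inhibit SV40 T antigen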
# [25] = Luminescence Cell-Based Dose Retest to Confirm Inhibitors of Cancer Stem Cells. [Related pubchem assays (depositor defined):AID2717, AID2721]; assay type: functional; details: Homo sapiens
# [26] = target: T4, Rac GTPase-activating protein 1 (Homo sapiens, UniProt Q9H0H5); test: blockers of MgcRacGAP-driven Rac1 GTP hydrolysis – biochemical, ADP Hunter fluorescence, primary and confirmatory, confirmation (AID 624330); assay type: functional
# T4 sequence (Q9H0H5 whole entry): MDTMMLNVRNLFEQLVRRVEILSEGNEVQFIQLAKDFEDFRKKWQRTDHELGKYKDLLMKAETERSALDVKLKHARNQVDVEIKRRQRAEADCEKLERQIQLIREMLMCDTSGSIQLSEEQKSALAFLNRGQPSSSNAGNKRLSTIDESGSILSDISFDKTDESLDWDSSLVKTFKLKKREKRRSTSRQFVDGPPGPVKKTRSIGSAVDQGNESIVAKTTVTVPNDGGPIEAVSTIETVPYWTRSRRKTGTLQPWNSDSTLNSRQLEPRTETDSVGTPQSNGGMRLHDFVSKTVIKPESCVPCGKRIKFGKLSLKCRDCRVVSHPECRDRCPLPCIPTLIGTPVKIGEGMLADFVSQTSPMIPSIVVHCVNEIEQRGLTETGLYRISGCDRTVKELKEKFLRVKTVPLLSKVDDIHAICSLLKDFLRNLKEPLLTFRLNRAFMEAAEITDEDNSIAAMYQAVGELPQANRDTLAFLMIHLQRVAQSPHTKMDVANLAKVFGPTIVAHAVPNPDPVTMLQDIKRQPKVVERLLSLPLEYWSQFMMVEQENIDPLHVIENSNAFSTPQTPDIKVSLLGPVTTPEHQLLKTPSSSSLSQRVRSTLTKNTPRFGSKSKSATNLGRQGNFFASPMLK
# T2 sequence (P65502 whole entry): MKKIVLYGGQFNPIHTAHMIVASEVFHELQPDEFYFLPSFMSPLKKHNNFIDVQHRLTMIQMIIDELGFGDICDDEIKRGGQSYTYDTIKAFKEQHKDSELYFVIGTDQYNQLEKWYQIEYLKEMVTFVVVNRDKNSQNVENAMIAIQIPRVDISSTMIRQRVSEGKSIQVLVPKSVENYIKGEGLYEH
# 72 kDa type IV collagenase, sequence (P08253 whole entry): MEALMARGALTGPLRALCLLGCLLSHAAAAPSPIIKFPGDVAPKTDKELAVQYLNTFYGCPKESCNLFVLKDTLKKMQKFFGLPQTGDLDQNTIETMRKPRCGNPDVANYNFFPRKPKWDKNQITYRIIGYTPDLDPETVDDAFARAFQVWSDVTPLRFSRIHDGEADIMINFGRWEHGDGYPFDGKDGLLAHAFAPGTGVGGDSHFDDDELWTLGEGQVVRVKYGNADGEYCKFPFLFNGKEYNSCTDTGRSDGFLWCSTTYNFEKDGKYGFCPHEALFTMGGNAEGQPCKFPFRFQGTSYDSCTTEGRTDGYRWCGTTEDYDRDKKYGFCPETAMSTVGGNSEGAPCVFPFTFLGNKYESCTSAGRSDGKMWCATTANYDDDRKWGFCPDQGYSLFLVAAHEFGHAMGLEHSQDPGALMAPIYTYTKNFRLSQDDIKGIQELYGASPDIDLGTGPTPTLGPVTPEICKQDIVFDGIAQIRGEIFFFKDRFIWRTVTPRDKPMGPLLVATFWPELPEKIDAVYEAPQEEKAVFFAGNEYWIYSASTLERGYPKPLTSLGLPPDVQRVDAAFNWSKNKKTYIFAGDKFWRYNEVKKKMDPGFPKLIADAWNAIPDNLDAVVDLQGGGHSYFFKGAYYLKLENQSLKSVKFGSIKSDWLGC
# Endoplasmic reticulum aminopeptidase 1, sequence (Q9NZ08 whole entry): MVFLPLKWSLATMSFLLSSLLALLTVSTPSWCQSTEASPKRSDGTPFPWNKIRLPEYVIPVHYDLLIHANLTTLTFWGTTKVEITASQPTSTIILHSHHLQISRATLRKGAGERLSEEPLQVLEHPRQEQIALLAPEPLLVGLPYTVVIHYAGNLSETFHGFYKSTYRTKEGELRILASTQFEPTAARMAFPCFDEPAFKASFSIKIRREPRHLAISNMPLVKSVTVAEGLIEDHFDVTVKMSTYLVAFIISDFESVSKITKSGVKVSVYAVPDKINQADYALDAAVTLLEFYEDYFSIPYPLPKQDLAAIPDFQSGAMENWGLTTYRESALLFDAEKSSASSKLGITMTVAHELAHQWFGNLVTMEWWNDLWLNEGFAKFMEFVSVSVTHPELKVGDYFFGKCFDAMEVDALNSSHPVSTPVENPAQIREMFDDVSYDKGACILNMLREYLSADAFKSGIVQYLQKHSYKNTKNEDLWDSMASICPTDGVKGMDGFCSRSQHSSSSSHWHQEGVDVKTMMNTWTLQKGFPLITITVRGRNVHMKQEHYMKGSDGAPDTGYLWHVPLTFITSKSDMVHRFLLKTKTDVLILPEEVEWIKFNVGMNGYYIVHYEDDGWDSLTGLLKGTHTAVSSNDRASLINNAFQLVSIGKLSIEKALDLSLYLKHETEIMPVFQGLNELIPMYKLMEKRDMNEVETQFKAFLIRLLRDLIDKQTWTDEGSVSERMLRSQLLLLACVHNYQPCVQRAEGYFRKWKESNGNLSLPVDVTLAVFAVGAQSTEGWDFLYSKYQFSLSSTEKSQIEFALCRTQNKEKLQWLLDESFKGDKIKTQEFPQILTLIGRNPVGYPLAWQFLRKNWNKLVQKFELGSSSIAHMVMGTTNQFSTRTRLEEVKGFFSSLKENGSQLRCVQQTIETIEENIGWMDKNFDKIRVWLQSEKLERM
# 26S proteasome non-ATPase regulatory subunit 14, sequence (O00487 whole entry): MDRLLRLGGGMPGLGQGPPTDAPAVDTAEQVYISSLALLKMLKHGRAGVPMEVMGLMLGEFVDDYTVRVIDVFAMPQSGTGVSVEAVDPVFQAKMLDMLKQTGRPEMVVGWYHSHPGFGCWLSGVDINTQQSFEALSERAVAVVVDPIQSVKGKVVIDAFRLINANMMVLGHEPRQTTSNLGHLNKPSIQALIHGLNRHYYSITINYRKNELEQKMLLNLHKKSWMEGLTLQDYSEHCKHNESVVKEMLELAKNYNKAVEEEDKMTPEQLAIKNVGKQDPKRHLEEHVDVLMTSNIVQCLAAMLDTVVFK
# Albumin, sequence (P02769 whole entry): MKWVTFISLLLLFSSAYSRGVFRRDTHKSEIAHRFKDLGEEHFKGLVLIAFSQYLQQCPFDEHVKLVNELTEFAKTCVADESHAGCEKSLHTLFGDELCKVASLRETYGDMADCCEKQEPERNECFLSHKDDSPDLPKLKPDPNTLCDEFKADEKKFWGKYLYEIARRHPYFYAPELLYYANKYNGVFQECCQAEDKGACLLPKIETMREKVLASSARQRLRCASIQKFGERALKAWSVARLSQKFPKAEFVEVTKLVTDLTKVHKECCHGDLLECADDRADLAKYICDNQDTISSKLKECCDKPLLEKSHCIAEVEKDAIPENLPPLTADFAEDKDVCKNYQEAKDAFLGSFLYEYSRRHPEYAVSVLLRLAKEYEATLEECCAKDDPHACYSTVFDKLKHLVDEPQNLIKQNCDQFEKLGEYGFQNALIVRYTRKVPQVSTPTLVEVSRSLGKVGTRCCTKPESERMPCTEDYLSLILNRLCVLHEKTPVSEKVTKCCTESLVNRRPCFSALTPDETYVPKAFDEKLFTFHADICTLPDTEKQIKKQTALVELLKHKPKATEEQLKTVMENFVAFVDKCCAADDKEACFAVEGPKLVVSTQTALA
# Nuclear receptor subfamily 0 group B member 1, sequence (P51843 whole entry): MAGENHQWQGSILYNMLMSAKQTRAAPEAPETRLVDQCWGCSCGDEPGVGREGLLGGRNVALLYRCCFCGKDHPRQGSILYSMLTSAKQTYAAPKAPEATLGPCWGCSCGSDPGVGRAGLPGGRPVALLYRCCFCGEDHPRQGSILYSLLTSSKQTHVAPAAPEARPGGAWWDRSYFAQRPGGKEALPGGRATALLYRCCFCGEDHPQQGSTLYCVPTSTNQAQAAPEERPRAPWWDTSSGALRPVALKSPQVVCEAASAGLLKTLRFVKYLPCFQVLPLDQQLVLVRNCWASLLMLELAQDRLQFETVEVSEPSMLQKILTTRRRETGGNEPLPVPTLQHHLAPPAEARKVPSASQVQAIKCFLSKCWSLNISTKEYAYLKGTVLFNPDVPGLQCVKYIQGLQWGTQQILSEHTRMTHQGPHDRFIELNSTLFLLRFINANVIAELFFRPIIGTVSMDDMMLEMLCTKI
# SWI/SNF-related matrix-associated actin-dependent regulator of chromatin subfamily A member 2, sequence (P51531 whole entry, the tested form may be a part): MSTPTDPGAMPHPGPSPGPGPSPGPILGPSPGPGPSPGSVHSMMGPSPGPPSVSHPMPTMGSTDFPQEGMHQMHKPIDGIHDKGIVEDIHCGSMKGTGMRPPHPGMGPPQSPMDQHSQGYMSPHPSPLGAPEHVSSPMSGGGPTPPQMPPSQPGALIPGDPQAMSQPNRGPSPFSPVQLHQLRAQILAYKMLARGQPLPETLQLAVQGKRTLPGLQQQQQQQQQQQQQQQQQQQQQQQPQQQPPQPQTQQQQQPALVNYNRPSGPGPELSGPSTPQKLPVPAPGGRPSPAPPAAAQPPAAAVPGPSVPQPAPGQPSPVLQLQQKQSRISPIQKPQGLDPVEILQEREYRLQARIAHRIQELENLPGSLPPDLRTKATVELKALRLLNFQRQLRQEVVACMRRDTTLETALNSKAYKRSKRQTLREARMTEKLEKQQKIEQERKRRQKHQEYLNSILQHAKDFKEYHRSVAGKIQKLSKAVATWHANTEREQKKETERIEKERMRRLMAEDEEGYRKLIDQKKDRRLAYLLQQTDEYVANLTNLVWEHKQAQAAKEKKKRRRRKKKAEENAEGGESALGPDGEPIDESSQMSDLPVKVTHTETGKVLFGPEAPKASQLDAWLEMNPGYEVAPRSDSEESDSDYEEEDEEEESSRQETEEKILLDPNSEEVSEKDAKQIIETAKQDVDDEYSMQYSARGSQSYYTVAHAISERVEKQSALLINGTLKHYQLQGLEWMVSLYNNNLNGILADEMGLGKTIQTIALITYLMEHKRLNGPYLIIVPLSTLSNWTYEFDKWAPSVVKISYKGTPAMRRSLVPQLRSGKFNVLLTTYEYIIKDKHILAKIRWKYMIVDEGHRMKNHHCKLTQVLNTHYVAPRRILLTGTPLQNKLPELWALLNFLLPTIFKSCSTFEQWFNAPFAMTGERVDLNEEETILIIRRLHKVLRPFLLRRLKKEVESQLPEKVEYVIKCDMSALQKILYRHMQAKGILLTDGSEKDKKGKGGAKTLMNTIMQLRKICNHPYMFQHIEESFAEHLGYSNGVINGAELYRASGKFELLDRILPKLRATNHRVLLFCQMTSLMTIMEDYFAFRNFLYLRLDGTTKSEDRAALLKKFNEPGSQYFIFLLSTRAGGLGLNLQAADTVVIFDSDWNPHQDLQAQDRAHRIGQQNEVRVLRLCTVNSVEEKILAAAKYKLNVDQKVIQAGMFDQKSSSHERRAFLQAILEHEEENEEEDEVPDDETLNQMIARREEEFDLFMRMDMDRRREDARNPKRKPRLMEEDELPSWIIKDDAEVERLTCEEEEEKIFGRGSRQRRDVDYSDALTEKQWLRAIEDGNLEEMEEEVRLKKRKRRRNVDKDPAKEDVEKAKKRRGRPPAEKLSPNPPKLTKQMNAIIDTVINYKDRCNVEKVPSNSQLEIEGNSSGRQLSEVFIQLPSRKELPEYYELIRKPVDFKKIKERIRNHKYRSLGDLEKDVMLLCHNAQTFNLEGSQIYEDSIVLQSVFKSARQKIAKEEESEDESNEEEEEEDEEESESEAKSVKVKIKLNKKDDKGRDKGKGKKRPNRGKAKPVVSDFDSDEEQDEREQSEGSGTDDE
structure (smiles),measurement,setting,value
COc1ccc(CNC(=O)CSc2n[nH]c3c4cc(C)ccc4nc-3n2)cc1,IC50,[1],0.72 µM (active)
same,IC50,[2],83.3 µM (inactive)
same,IC50,[3],11 µM (inactive)
Cc1c(CC(=O)N2CCN(C(=O)C3COc4ccccc4O3)CC2)c(=O)oc2cc(O)c(Cl)cc12 (configuration not stated),AC50,[4],3.11 µM (active)
CCOC(=O)CSc1nc2ccccc2n1C(=O)OCC,IC50,[5],> 100 µM (inactive)
same,IC50,[6],21.1 µM (active)
same,IC50,Prothrombin,28.1 µM (active)
C=CCNC(=S)NNC(=O)c1ccc(=O)n(Cc2ccc(Cl)cc2Cl)c1,IC50,[1],13.4 µM (inactive)
same,IC50,[2],83.3 µM (inactive)
same,IC50,[3],281 µM (inactive)
O=C(CSc1nnc(-c2cc3ccccc3cc2O)n1Cc1ccco1)N1CCc2ccccc2C1,IC50,[7],9.71 µM (active)
same,IC50,[8],30.6 µM (active)
COC(=O)c1ccc2nc(-c3ccc4c(c3)OCO4)cn2c1,AC50,HEK293,1.57 µM (active)
same,IC50,cells,> 67.5 µM (inactive)
same,IC50,[9],> 0.0925 µM (active)
same,AC50,[10],> 52 µM (inactive)
same,AC50,[11],> 52 µM (inactive)
same,AC50,[12],2.13 µM (active)
same,AC50,[13],2.22 µM (active)
CC(C)C(=O)Nc1ccc(C(=O)NNC(=S)NC(=O)c2ccco2)cc1,IC50,Albumin,> 94.1 µM (inactive)
COc1ccc(C2c3ccc(O)cc3Oc3ncn4nc(-c5ccccn5)nc4c32)cc1OC (configuration not stated),AC50,[14],122 µM (active)
O=C(NC(=S)Nc1ccc(Br)cn1)c1cccnc1,EC50,[15],> 91.2 µM (inactive)
same,EC50,[16],> 91.2 µM (inactive)
CN(CCC#N)C(=O)COC(=O)c1c2c(nc3ccccc13)/C(=C\c1ccco1)CC2,IC50,[17],3.2 µM (active)
same,IC50,[7],9.77 µM (active)
same,IC50,[8],18 µM (active)
same,IC50,Albumin,> 94.1 µM (inactive)
CSc1nc2c(=S)n(C)c(=O)n(C)c2[nH]1,EC50,[15],> 91.2 µM (inactive)
same,EC50,[16],> 91.2 µM (inactive)
O=C(N/N=C/c1ccccc1)c1ccc(CN2C(=O)c3cccc4cccc2c34)cc1,IC50,[5],> 100 µM (inactive)
same,IC50,[6],10.7 µM (active)
same,IC50,Prothrombin,69.8 µM (active)
O=C(N/N=C/c1ccsc1)c1ccccn1,IC50,cells,> 67.5 µM (inactive)
same,IC50,[9],> 67.5 µM (inactive)
COC(=O)c1nn(-c2ccc(C(C)C)cc2)c(=O)c(Oc2ccc(OC)cc2)c1Cl,IC50,[18],3.57 µM (active)
C[C@H](CO)N1C[C@H](C)[C@H](CN(C)C(=O)Nc2cccc3ccccc23)Oc2ncc(C#Cc3ccc(C(F)(F)F)cc3)cc2C1=O,AC50,[10],41.4 µM (active)
same,AC50,[19],23.1 µM (active)
same,AC50,[20],25.9 µM (active)
same,AC50,[11],21.3 µM (active)
same,AC50,[12],41.1 µM (active)
same,AC50,[13],21.7 µM (active)
same,AC50,[21],13.9 µM (active)
N#Cc1cccc(NC(=O)c2cc(C3CCCCN3S(=O)(=O)c3ccccc3)on2)c1 (configuration not stated),IC50,[22],> 69.5 µM (inactive)
same,IC50,[23],> 69.5 µM (inactive)
CN1C(=O)c2cc(NC(=O)Nc3ccc(Cl)cc3)ccc2OC[C@H]2O[C@@H](CC(=O)NCCN3CCCCC3)CC[C@@H]21,AC50,HeLa,22.7 µM (active)
C[C@H]1CN([C@@H](C)CO)C(=O)c2cc(NC(=O)Nc3ccc(F)cc3)ccc2O[C@@H]1CN(C)S(C)(=O)=O,AC50,HeLa,1.16 µM (active)
CC(C)(C)[S@+]([O-])N1Cc2cc(C(=O)NCc3ccc4c(c3)OCO4)nc(-c3cccc(-c4cccnc4)c3)c2[C@@H]1CCO,AC50,[24],1.14 µM (active)
O=C(NCC1CC1)[C@H]1[C@H](CO)[C@H]2Cn3c(ccc(/C=C/c4ccccc4)c3=O)[C@@H]1N2C(=O)C1CC1,AC50,[4],7.13 µM (active)
C=CCn1c(CNc2ccccc2)nnc1SCC(=O)N/N=C/c1ccc(O)cc1O,IC50,Large T antigen,> 100 µM (active)
same,AC50,[25],5.46 µM (active)
same,AC50,[14],102 µM (active)
same,IC50,[26],68.8 µM (active)

# Reference: ChEMBL document CHEMBL1201862, “PubChem BioAssay data set” (2004)
